Test results from patent US6472348B1, “Pyridone derivatives and herbicides” (Kumiai Chemical Industry Co., Ltd., priority 1996, dated 2002).

Legend:
Type in all cases: in vivo
Diaitaria ciliaris (Di) [1] = test: Test Example 4: crop plant selectivity by upland field soil treatment (cotton), herbicidal effects; conditions: evaluated 21st day after application
Method: (§1) (Test on Crop Plant Selectivity by Upland Field Soil Treatment)
In a plastic pot (surface area: 600 cm^2) filled with sand, cotton (Go), Diaitaria ciliaris (Di), green foxtail (Se), pale smartweed (Po), slender amaranth (Am), common lambsquarters (Ch) and China jute (Ab) were sown and covered with soil. […] The plants were then cultured in a green house, and the evaluation of the herbicidal effects and phytotoxicity was conducted on the 21st day after the application in accordance with the standards as identified in Table 47. Symbol—represents “not tested”.

slender amaranth (Am) [2] = test: as above; parameters: scale not given here; conditions: evaluated 21st day after application
In short: (§2)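 Upland soil treatment: crop and weed seeds in sand pots under a soil cover, compound applied to soil, greenhouse-grown, rated visually 21 d later.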

[3] = system: common lambsquarters (Ch); test: as above; parameters: scale not given here; conditions: evaluated 21st day after application
In short: as §2

pale smartweed (Po) [4] = test: as above; parameters: scale not given here; conditions: evaluated 21st day after application
In short: as §2

China jute (Ab) [5] = test: as above; parameters: scale not given here; conditions: evaluated 21st day after application
In short: as §2

green foxtail (Se) [6] = test: as above; parameters: scale not given here; conditions: evaluated 21st day after application
In short: as §2

Digitaria ciliaris (Di) = test: Test Example 2: herbicidal effects by upland field soil treatment; conditions: 100 g of the active ingredient per 10 ares, evaluated on the 21st day after application;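 note: grade of growth control; 5 = at least 90%; 4 = 70 to 90%; 3 = 50 to 70%; 2 = 30 to 50%; 1 = 10 to 30%; 0 = under 10%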
Text: (§3) (Test on Herbicidal Effects by Upland Field Soil Treatment)

slender amaranth (Am) [7] = test: as above; conditions: 100 g of the active ingredient per 10 ares, evaluated on the 21st day after application
Text: as §3

[8] = system: common lambsquarters (Ch); test: as above; conditions: 100 g of the active ingredient per 10 ares, evaluated on the 21st day after application
Text: as §3

rice flatsedge (Ci) [9] = test: as above; conditions: 100 g of the active ingredient per 10 ares, evaluated on the 21st day after application
Text: as §3

barnyardgrass (Ec) [10] = test: as above; conditions: 100 g of the active ingredient per 10 ares, evaluated on the 21st day after application
Text: as §3

pale smartweed (Po) [11] = test: as above; conditions: 100 g of the active ingredient per 10 ares, evaluated on the 21st day after application
Text: as §3

monochoria (Mo) = test: Test Example 1: herbicidal effects by paddy field soil treatment; conditions: 100 g of the active ingredient per 10 ares, 21st day after the application, index 0-5 of Table 47;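 note: grade of growth control; 5 = at least 90%; 4 = 70 to 90%; 3 = 50 to 70%; 2 = 30 to 50%; 1 = 10 to 30%; 0 = under 10%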
In short: (§4)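 Scoring of herbicidal effect came 21 days after application of 100 g active ingredient per 10 ares to flooded (3 cm) paddy-soil pots sown with barnyardgrass, monochoria and bulrush, kept in a greenhouse.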

bulrush (Sc) = test: as above; conditions: 100 g of the active ingredient per 10 ares, 21st day after the application, index 0-5 of Table 47;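 note: grade of growth control; 5 = at least 90%; 4 = 70 to 90%; 3 = 50 to 70%; 2 = 30 to 50%; 1 = 10 to 30%; 0 = under 10%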
In short: as §4

barnyardgrass (Ec) [12] = test: as above; conditions: 100 g of the active ingredient per 10 ares, 21st day after the application, index 0-5 of Table 47
In short: as §4

slender amaranth (Am) [13] = test: Test Example 3: herbicidal effects by upland field foliage treatment; parameters: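 grade of growth control; 5 = at least 90%; 4 = 70 to 90%; 3 = 50 to 70%; 2 = 30 to 50%; 1 = 10 to 30%; 0 = under 10%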; conditions: 100 g active ingredient per 10 ares, evaluated 14th day after treatment
In short: (§5)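 Using plants cultured for 2 weeks in a greenhouse from seed sown in soil-covered sand (pots 120 cm^2), the compounds were applied to foliage, and weed control was graded by standard criteria 14 days thereafter.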

Diaitaria ciliaris (Di) [14] = test: as above; parameters: scale not given here; conditions: 100 g active ingredient per 10 ares, evaluated 14th day after treatment
In short: as §5

[15] = system: common lambsquarters (Ch); test: as above; parameters: scale not given here; conditions: 100 g active ingredient per 10 ares, evaluated 14th day after treatment
In short: as §5

rice flatsedge (Ci) [16] = test: as above; parameters: scale not given here; conditions: 100 g active ingredient per 10 ares, evaluated 14th day after treatment
In short: as §5

barnyardgrass (Ec) [17] = test: as above; parameters: scale not given here; conditions: 100 g active ingredient per 10 ares, evaluated 14th day after treatment
In short: as §5

pale smartweed (Po) [18] = test: as above; parameters: scale not given here; conditions: 100 g active ingredient per 10 ares, evaluated 14th day after treatment
In short: as §5

soybean (Gl) = test: Test Example 6: crop plant selectivity by upland field soil treatment (soybean), phytotoxicity; parameters: scale not given here; conditions: dose 1.6 g ai/10a, 21st day after application
In short: (§6)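 Seeds are sown in sand and covered with soil. The soil is treated with test compound. Pots are kept in a greenhouse. Weed control and soybean damage are rated visually 21 days after application.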

cotton (Go) = test: Test Example 4: crop plant selectivity by upland field soil treatment (cotton), phytotoxicity; parameters: scale not given here; conditions: evaluated 21st day after application
In short: as §2

Diaitaria ciliaris (Di) [19] = test: Test Example 6: crop plant selectivity by upland field soil treatment (soybean), herbicidal effects; conditions: dose 1.6 g ai/10a, 21st day after application
Method: as §1
(§7) In a plastic pot (surface area: 600 cm^2) filled with sand, soybean (Gl), Diaitaria ciliaris (Di), green foxtail (Se), Johnsongrass (So), pale smartweed (Po), slender amaranth (Am), common lambsquarters (Ch) and China jute (Ab) were sown and covered with soil. […] The plants were then cultured in a green house, and the evaluation of the herbicidal effects and phytotoxicity was conducted on the 21st day after the application in accordance with the standards as identified in Table 47. Symbol—represents “not tested”.

Johnsongrass (So) = test: as above; conditions: dose 1.6 g ai/10a, 21st day after application
Method: as §1, §7

slender amaranth (Am) [20] = test: as above; parameters: scale not given here; conditions: dose 1.6 g ai/10a, 21st day after application
In short: as §6

[21] = system: common lambsquarters (Ch); test: as above; parameters: scale not given here; conditions: dose 1.6 g ai/10a, 21st day after application
In short: as §6

pale smartweed (Po) [22] = test: as above; parameters: scale not given here; conditions: dose 1.6 g ai/10a, 21st day after application
In short: as §6

China jute (Ab) [23] = test: as above; parameters: scale not given here; conditions: dose 1.6 g ai/10a, 21st day after application
In short: as §6

green foxtail (Se) [24] = test: as above; parameters: scale not given here; conditions: dose 1.6 g ai/10a, 21st day after application
In short: as §6

wheat (Tr) = test: Test Example 5: crop plant selectivity by upland field soil treatment (wheat), phytotoxicity; parameters: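 grade of crop injury; 5 = at least 90%; 4 = 70 to 90%; 3 = 50 to 70%; 2 = 30 to 50%; 1 = 10 to 30%; 0 = under 10%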; conditions: dose 1.6 g ai/10a, 21st day after application
In short: (§8)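 Pots of sand sown with wheat and weeds (incl. Digitaria ciliaris, green foxtail, slender amaranth), seeds covered with soil, soil-applied treatment. Grown in greenhouse; herbicidal effect and crop phytotoxicity scored visually on day 21 after application against a rating scale.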

Diaitaria ciliaris (Di) [25] = test: Test Example 5: crop plant selectivity by upland field soil treatment (wheat), herbicidal effects; conditions: dose 1.6 g ai/10a, 21st day after application
Method: as §1
In a plastic pot (surface area: 600 cm^2) filled with sand, wheat (Tr), Diaitaria ciliaris (Di), green foxtail (Se), pale smartweed (Po), slender amaranth (Am), common lambsquarters (Ch) and China jute (Ab) were sown and covered with soil. […] The plants were then cultured in a green house, and the evaluation of the herbicidal effects and phytotoxicity was conducted on the 21st day after the application in accordance with the standards as identified in Table 47. Symbol—represents “not tested”.

slender amaranth (Am) [26] = test: as above; parameters: scale not given here; conditions: dose 1.6 g ai/10a, 21st day after application
In short: as §8

[27] = system: common lambsquarters (Ch); test: as above; parameters: scale not given here; conditions: dose 1.6 g ai/10a, 21st day after application
In short: as §8

pale smartweed (Po) [28] = test: as above; parameters: scale not given here; conditions: dose 1.6 g ai/10a, 21st day after application
In short: as §8

China jute (Ab) [29] = test: as above; parameters: scale not given here; conditions: dose 1.6 g ai/10a, 21st day after application
In short: as §8

green foxtail (Se) [30] = test: as above; parameters: scale not given here; conditions: dose 1.6 g ai/10a, 21st day after application
In short: as §8

## CCc1cc2c(-c3cn(C)c(C(F)(F)F)cc3=O)c(F)cc(Cl)c2o1 [Compound 9-2]
Diaitaria ciliaris (Di) [1]; dose 1.6 g ai/10 a
  Herbicidal effects Di: 5
Diaitaria ciliaris (Di) [1]; dose 6.3 g ai/10 a
  Herbicidal effects Di: 5
Slender amaranth (Am) [2]; dose 1.6 g ai/10 a
  Herbicidal effects Am: 5
Slender amaranth (Am) [2]; dose 6.3 g ai/10 a
  Herbicidal effects Am: 5
[3]; dose 1.6 g ai/10 a
  Herbicidal effects Ch: 5
[3]; dose 6.3 g ai/10 a
  Herbicidal effects Ch: 5
Pale smartweed (Po) [4]; dose 1.6 g ai/10 a
  Herbicidal effects Po: 5
Pale smartweed (Po) [4]; dose 6.3 g ai/10 a
  Herbicidal effects Po: 5
China jute (Ab) [5]; dose 1.6 g ai/10 a
  Herbicidal effects Ab: 5
China jute (Ab) [5]; dose 6.3 g ai/10 a
  Herbicidal effects Ab: 5
Green foxtail (Se) [6]; dose 1.6 g ai/10 a
  Herbicidal effects Se: 5
Green foxtail (Se) [6]; dose 6.3 g ai/10 a
  Herbicidal effects Se: 5
Digitaria ciliaris (Di)
  Herbicidal effects Di: 5
Slender amaranth (Am) [7]
  Herbicidal effects Am: 5
[8]
  Herbicidal effects Ch: 5
Rice flatsedge (Ci) [9]
  Herbicidal effects Ci: 5
Barnyardgrass (Ec) [10]
  Herbicidal effects Ec: 5
Pale smartweed (Po) [11]
  Herbicidal effects Po: 5
Monochoria (Mo)
  Herbicidal effects Mo: 5
Bulrush (Sc)
  Herbicidal effects Sc: 5
Barnyardgrass (Ec) [12]
  Herbicidal effects Ec: 5
Slender amaranth (Am) [13]
  Herbicidal effects Am: 5
Diaitaria ciliaris (Di) [14]
  Herbicidal effects Di: 5
[15]
  Herbicidal effects Ch: 5
Rice flatsedge (Ci) [16]
  Herbicidal effects Ci: 5
Barnyardgrass (Ec) [17]
  Herbicidal effects Ec: 5
Pale smartweed (Po) [18]
  Herbicidal effects Po: 5
Soybean (Gl)
  Phytotoxicity Gl: 1
Cotton (Go); dose 1.6 g ai/10 a
  Phytotoxicity Go: 0
Cotton (Go); dose 6.3 g ai/10 a
  Phytotoxicity Go: 0
Diaitaria ciliaris (Di) [19]
  Herbicidal effects Di: 5
Johnsongrass (So)
  Herbicidal effects So: 5
Slender amaranth (Am) [20]
  Herbicidal effects Am: 5
[21]
  Herbicidal effects Ch: 5
Pale smartweed (Po) [22]
  Herbicidal effects Po: 5
China jute (Ab) [23]
  Herbicidal effects Ab: 5
Green foxtail (Se) [24]
  Herbicidal effects Se: 5

## Cn1c(C(F)(F)F)ccc(-c2cc3c(cc2F)OCC(=O)N3)c1=O [Compound No. 2-4, 3-(7-fluoro-2,3-dihydro-1,4-benzoxazin-3-on-6-yl)-1-methyl-6-trifluoromethyl-2(1H)-pyridone]
Wheat (Tr)
  Phytotoxicity Tr: 0
Diaitaria ciliaris (Di) [25]
  Herbicidal effects Di: 5
Digitaria ciliaris (Di)
  Herbicidal effects Di: 5
Slender amaranth (Am) [7]
  Herbicidal effects Am: 5
[8]
  Herbicidal effects Ch: 5
Rice flatsedge (Ci) [9]
  Herbicidal effects Ci: 5
Barnyardgrass (Ec) [10]
  Herbicidal effects Ec: 5
Pale smartweed (Po) [11]
  Herbicidal effects Po: 5
Monochoria (Mo)
  Herbicidal effects Mo: 5
Bulrush (Sc)
  Herbicidal effects Sc: 5
Barnyardgrass (Ec) [12]
  Herbicidal effects Ec: 5
Slender amaranth (Am) [26]
  Herbicidal effects Am: 5
[27]
  Herbicidal effects Ch: 4
Pale smartweed (Po) [28]
  Herbicidal effects Po: 5
China jute (Ab) [29]
  Herbicidal effects Ab: 3
Green foxtail (Se) [30]
  Herbicidal effects Se: 5
Slender amaranth (Am) [13]
  Herbicidal effects Am: 5
Diaitaria ciliaris (Di) [14]
  Herbicidal effects Di: 5
[15]
  Herbicidal effects Ch: 5
Rice flatsedge (Ci) [16]
  Herbicidal effects Ci: 5
Barnyardgrass (Ec) [17]
  Herbicidal effects Ec: 5
Pale smartweed (Po) [18]
  Herbicidal effects Po: 5
